In publication PMC12015663 (Cancer Research Communications, 2025):
Read-outs that look alike come from different tables or passages of the source. Values belong to the molecule of their own block, whether it stands above or below them.

How the values were obtained:
[1] = test system: pERK in NCI-H1838 (NF1-LOF); test: pERK modulation in vitro, MSD ELISA, NCI-H1838; settings: for extent of the pERK increase: NCI-H1838, compared across type II RAF inhibitors; for EC50: read-out: pERK EC50
Description: (§1) MSD ELISA experiments were conducted by WuXi AppTec on whole cell lysates and generated using the Phospho/Total ERK1/2 Assay Whole Cell Lysate Kit (MSD, cat. no. K15107D) according to the manufacturer’s protocol.
(§2) In vitro modulation of pERK levels was assessed in NF1-LOF and BRAF V600E tumor cell lines by MSD ELISA.
(§3) pERK levels were assessed 1 hour after treatment with each of the test compounds or control. Preparation of 96-well plates for MSD ELISA was performed according to the manufacturer’s instructions using the Phospho/Total ERK1/2 Assay Whole Cell Lysate Kit (MSD, cat no. K15107D). The plates were read using the MSD reader (MESO QuickPlex SQ120, cat. no. SQ120, RRID: SCR_020304). The A375 BRAF V600E tumor cell line served as a positive control.
(§4) The percent phosphoprotein in a sample was calculated using MSD phospho-/total multiplex phosphoprotein assays, as well as the following formula: anti-total and anti-phospho assay in the same well: % phosphoprotein = [(2 × phospho signal)/(phospho signal + total signal)] × 100. The ratio of pERK to total ERK was normalized to the ratio of the DMSO control group. EC50 pERK values and concentration response curves were generated using GraphPad Prism software analysis (RRID: SCR_002798).

[2] = test system: A375; test: CellTiter-Glo cell viability assay, A375; settings: read-out: Proliferation EC50
Description: (§5) Next, 2 μL of each concentration was added to 198 μL assay medium (PBS) to create a 10× stock. […] MSD ELISA experiments were conducted by WuXi AppTec on whole cell lysates and generated using the Phospho/Total ERK1/2 Assay Whole Cell Lysate Kit (MSD, cat. no. K15107D) according to the manufacturer’s protocol.
(§6) The in vitro anti-proliferation effect of each of the test compounds was assessed in NF1-LOF and BRAF V600E tumor cell lines cultured as a monolayer using the CellTiter-Glo (CTG) cell viability assay. Cell culture experiments were performed with duplicate wells. Cell concentrations were adjusted for cell density (seeding density of 5,000 for sNF96.2 and MeWo; 6,000 for NCI-H1838; and 2,500 for A375) prior to plating onto a 96-well assay plate and incubated overnight at 37°C with 5% CO2, 95% air, and 100% relative humidity.
(§7) Anti-proliferative activity was assessed after 72 hours of treatment with the test compound or control. […] DMSO was also applied as a control on days 2 and 3. The final DMSO concentration for all test compounds and vehicle control was 0.1%. The A375 BRAF V600E tumor cell line served as a positive control. Preparation of 96-well plates for CTG assays was performed according to the manufacturer’s instructions using the CTG Luminescent Cell Viability Assay Kit (Promega, RRID: SCR_006724, cat. no. G7573). Luminescence was measured on day 3 using the 2104 EnVision Multilabel Reader (PerkinElmer).
(§8) The inhibition rate of the tested compounds was determined using the following formula: inhibition rate (%) = (1 − [relative luminescence unit (RLU) compound − RLU blank])/(RLU control − RLU blank) × 100. EC50 proliferation values were generated using GraphPad Prism software analysis.

[3] = test system: sNF96.2; test: CellTiter-Glo cell viability assay, sNF96.2; settings: read-out: Proliferation EC50
Description: as §5, §6, §7, §8

[4] = molecular target: T1, ARAF (Homo sapiens, UniProt P10398); test: Time-resolved fluorescence energy transfer binding assay (KINETICfinder); settings: partial length active recombinant human ARAF at 5 nmol/L; 60 minutes, room temperature; singlicate
T1 sequence (P10398 310-570 limits assumed): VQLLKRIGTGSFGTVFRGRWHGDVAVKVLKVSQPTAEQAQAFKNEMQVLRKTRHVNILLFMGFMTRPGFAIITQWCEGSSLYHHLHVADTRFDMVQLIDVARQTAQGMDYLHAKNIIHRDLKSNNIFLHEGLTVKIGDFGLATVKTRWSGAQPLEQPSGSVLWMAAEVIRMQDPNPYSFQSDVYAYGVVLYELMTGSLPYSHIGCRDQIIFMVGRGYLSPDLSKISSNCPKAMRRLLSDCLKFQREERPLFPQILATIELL
Description: Compounds were mixed with assay buffer (50 mmol/L HEPES pH 7.5, 1 mmol/L Ethyleneglycol-bis-(aminoethyl-ether)-N,N,N',N'-tetraacetic acid, 0.01% Brij-35, 10 mmol/L MgCl2, and 2 mmol/L Dithiothreitol), and 5 μL of this solution was transferred to the assay plate. The final concentration of DMSO in the assay was 1%. Hundred percent DMSO was used as a high and low control. Assays were run in singlicate with a reference compound included in each assay to evaluate reproducibility and assay quality.
Wells containing the fluorescent probe, antibody, and target (ARAF) were used as the high reaction control (total binding) and wells containing the probe and antibody were used as the low reaction control (nonspecific binding). […] Next, the substrate antibody solution was added, and the reaction was incubated for 60 minutes at room temperature. Percentage inhibition of each well was calculated using the following formula: % inhibition = 100 − [compound emission ratio (ER) − low control ER/high control ER − low control ER] × 100. Results were fitted to a concentration response curve with a variable slope and constraints of 0 and 100 for bottom and top, respectively, to generate the IC50 values.

[5] = test system: MeWo; test: CellTiter-Glo cell viability assay, MeWo
Description: as §5, §6, §7, §8

[6] = test system: pERK in MeWo (NF1-LOF); test: pERK modulation in vitro, MSD ELISA, MeWo
Description: as §1, §2, §3, §4

[7] = test system: BRAF wt; design: method as in earlier work; settings: full length human construct; 0.125 nmol/L GST-tagged BRAF wild type, 12.5 nmol/L biotinylated MEK, ATP 50 μmol/L; 41 (TAK-632: ref 26-28); cited from earlier work
[8] = test system: pERK in A375 (BRAF V600E); test: pERK modulation in vitro, MSD ELISA, A375; assay type: cell-based; settings: A375, BRAF V600E, melanoma, 1 hour after treatment, n = 2, read-out: pERK EC50
Description: as §1, §2, §3, §4

[9] = test system: NCI-H1838; test: CellTiter-Glo cell viability assay, NCI-H1838; settings: read-out: Proliferation EC50
Description: as §5, §6, §7, §8

[10] = test system: CRAF wt; design: method as in earlier work; settings: full length human construct; GST-tagged CRAF wild type, 50 nmol/L biotinylated MEK, ATP 10 μmol/L; 41 (TAK-632: ref 26-28); cited from earlier work
[11] = test system: pERK in sNF96.2 (NF1-LOF); test: pERK modulation in vitro, MSD ELISA, sNF96.2; settings: read-out: pERK EC50
Description: as §1, §2, §3, §4

[12] = test system: NF1-LOF tumor cell lines; test: CellTiter-Glo cell viability assay, statement on all three NF1-LOF tumor cell lines; settings: CTG 72 hours
Description: as §5, §6
Anti-proliferative activity was assessed after 72 hours of treatment with the test compound or control. […] DMSO was also applied as a control on days 2 and 3. The final DMSO concentration for all test compounds and vehicle control was 0.1%. […] Luminescence was measured on day 3 using the 2104 EnVision Multilabel Reader (PerkinElmer).
The inhibition rate of the tested compounds was determined using the following formula: inhibition rate (%) = (1 − [relative luminescence unit (RLU) compound − RLU blank])/(RLU control − RLU blank) × 100. […]

Compound: O=C1CCc2c(Oc3ccc4c(c3)[C@@H]3[C@H](O4)[C@H]3c3nc4ccc(C(F)(F)F)cc4[nH]3)ccnc2N1 [BGB-283]
- extent of the pERK increase ([1]; 1 hour after treatment): higher extent

Compound: Cc1ccc2c(Nc3cccc(Cl)c3F)nccc2c1NC(=O)c1csc2c(N)ncnc12 [Belvarafenib]
- extent of the pERK increase ([1]; 1 hour after treatment): lesser extent

Compound: Cc1ccc(NC(=O)c2ccnc(C(F)(F)F)c2)cc1-c1cc(OCCO)nc(N2CCOCC2)c1 [LXH254]
- extent of the pERK increase ([1]; 1 hour after treatment): lesser extent

Compound: N#Cc1c(Oc2ccc(F)c(NC(=O)Cc3cccc(C(F)(F)F)c3)c2)ccc2nc(NC(=O)C3CC3)sc12 [TAK-632]
- EC50 ([2]; A375, CTG 72 hours after treatment, repeated application of tovorafenib): 70 nM
- EC50 ([3]; sNF96.2, CTG 72 hours after treatment, repeated application of tovorafenib): 2.4 µM
- IC50 [4]: 215 nM
- EC50 ([5]; read-out: Proliferation EC50, CTG 72 hours after treatment, repeated application of tovorafenib): 4.1 µM
- EC50 ([6]; read-out: pERK EC50, NF1-LOF, melanoma, 1 hour after treatment, n = 2): 1600 nM
- IC50 [7]: 8.3 nM
- EC50 [8]: 30 nM
- EC50 ([9]; NCI-H1838, CTG 72 hours after treatment, n = 1, repeated application of tovorafenib): 3.3 µM
- IC50 [10]: 1.4 nM
- extent of the pERK increase ([1]; 1 hour after treatment): lesser extent
- EC50 ([1]; NCI-H1838, NF1-LOF, lung, 1 hour after treatment, n = 1): 1250 nM
- EC50 ([11]; sNF96.2, NF1-LOF, MPNST, 1 hour after treatment, n = 2): 750 nM

- EC50 ([2]; Homo sapiens, A-375, 72 h): 90 nM
- EC50 ([6]; Homo sapiens, 1 h, read-out: pERK EC50): > 10000 nM
- EC50 ([8]; Homo sapiens, A-375): 20 nM
- EC50 ([9]; Homo sapiens, NCI-H1838, 72 h): > 10 µM
- EC50 ([1]; Homo sapiens, NCI-H1838, 1 h): > 10000 nM
- EC50 ([11]; SNF96.2, 1 h): > 10000 nM
Compound: CCCS(=O)(=O)Nc1ccc(F)c(C(=O)c2c[nH]c3ncc(-c4ccc(Cl)cc4)cc23)c1F [Vemurafenib]
- EC50 ([3]; SNF96.2, 72 h): 6 µM
- EC50 ([5]; Homo sapiens, 72 h, read-out: Proliferation EC50): 4.5 µM
- sensitivity of cell lines [12]: insensitive
